From the supplement of paper PMC10307832

Experiments:
Assay in all cases: relative viability (nuclei count vs DMSO), 5 days (fraction); higher = more cells survive
Daporinad + Palbociclib = compound: O=C(/C=C/c1cccnc1)NCCCCC1CCN(C(=O)c2ccccc2)CC1 [Daporinad] + CC(=O)c1c(C)c2cnc(Nc3ccc(N4CCNCC4)cn3)nc2n(C2CCCC2)c1=O [Palbociclib] (partner 0.5 µM)
Outline: (§1)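 Each reported value is a median over duplicate plates. It expresses relative viability: treated-well nuclei count divided by vehicle-well nuclei count. Lung cancer cell lines in 1536-well plates were dosed by pin tool a day after seeding, alone with one drug or with a fixed anchor-drug dose plus five library-drug doses (not always all listed) in √10 steps, and nuclei were counted after 5 days.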

Daporinad + Phenformin = compound: O=C(/C=C/c1cccnc1)NCCCCC1CCN(C(=O)c2ccccc2)CC1 [Daporinad] + N=C(N)NC(=N)NCCc1ccccc1 [Phenformin] (partner 250 µM)
Outline: as §1

Daporinad + Luminespib = compound: O=C(/C=C/c1cccnc1)NCCCCC1CCN(C(=O)c2ccccc2)CC1 [Daporinad] + CCNC(=O)c1noc(-c2cc(C(C)C)c(O)cc2O)c1-c1ccc(CN2CCOCC2)cc1 [Luminespib] (partner 0.01 µM)
Outline: as §1

R406 + Lapatinib = compound: COc1cc(Nc2ncc(F)c(Nc3ccc4c(n3)NC(=O)C(C)(C)O4)n2)cc(OC)c1OC [R406] + CS(=O)(=O)CCNCc1ccc(-c2ccc3ncnc(Nc4ccc(OCc5cccc(F)c5)c(Cl)c4)c3c2)o1 [Lapatinib] (partner 2 µM)
Outline: as §1

Cell Line | relative viability (Daporinad + Palbociclib; first compound 0.0005 µM) | relative viability (Daporinad + Palbociclib; first compound 0.001581 µM) | relative viability (Daporinad + Palbociclib; first compound 0.005 µM) | relative viability (Daporinad + Palbociclib; first compound 0.01581 µM) | relative viability (Daporinad + Phenformin; first compound 0.0005 µM) | relative viability (Daporinad + Phenformin; first compound 0.001581 µM) | relative viability (Daporinad + Phenformin; first compound 0.005 µM) | relative viability (Daporinad + Phenformin; first compound 0.01581 µM) | relative viability (Daporinad + Luminespib; first compound 0.0005 µM) | relative viability (Daporinad + Luminespib; first compound 0.001581 µM) | relative viability (Daporinad + Luminespib; first compound 0.005 µM) | relative viability (Daporinad + Luminespib; first compound 0.01581 µM) | relative viability (R406 + Lapatinib; first compound 0.08 µM) | relative viability (R406 + Lapatinib; first compound 0.253 µM) | relative viability (R406 + Lapatinib; first compound 0.8 µM) | relative viability (R406 + Lapatinib; first compound 2.53 µM) | relative viability (R406 + Lapatinib; first compound 8 µM)
NCI-H1993 | 0.583 | 0.563 | 0.719 | 0.706 | 0.536 | 0.553 | 0.535 | 0.578 | 0.795 | 0.797 | 0.787 | 0.891 | 0.882 | 0.964 | 0.829 | 0.43 | 0.646
NCI-H2009 | 0.204 | 0.253 | 0.252 | 0.0753 | 0.447 | 0.497 | 0.492 | 0.337 | 1.02 | 1.08 | 1 | 0.702 | 0.93 | 1.19 | 1.22 | 0.0976 | 0.261
NCI-H2023 | 0.402 | 0.405 | 0.445 | 0.401 | 0.409 | 0.399 | 0.405 | 0.447 | 0.727 | 0.759 | 0.918 | 0.717 | 0.968 | 0.976 | 1.05 | 0.0633 | 0.189
NCI-H2085 | 0.41 | – | 0.512 | 0.533 | 0.816 | 0.855 | 0.796 | 0.816 | 0.386 | 0.434 | 0.549 | 0.503 | 0.783 | 0.851 | 0.894 | 0.52 | 0.591
NCI-H2087 | 0.215 | 0.242 | 0.224 | 0.243 | 0.405 | 0.601 | 0.535 | 0.496 | 0.178 | 0.177 | 0.154 | 0.159 | 0.826 | 1.26 | 1.36 | 0.254 | 0.966
NCI-H2126 | 0.358 | 0.32 | 0.356 | 0.36 | 0.541 | 0.533 | 0.586 | 0.62 | 0.883 | 0.897 | 0.921 | 0.924 | 0.763 | 0.798 | 0.801 | 0.772 | 0.737
NCI-H2170 | 0.351 | 0.39 | 0.394 | 0.381 | 0.379 | 0.424 | 0.415 | 0.458 | 0.817 | 0.722 | 0.417 | 0.734 | 0.253 | 0.25 | 0.247 | 0.272 | 0.258
NCI-H2228 | 0.67 | 0.745 | 0.529 | 0.811 | 0.352 | 0.301 | 0.311 | 0.417 | 0.17 | 0.173 | 0.221 | 0.163 | 1.13 | 1.27 | 1.5 | 0.13 | 0.131
NCI-H2347 | 0.447 | 0.447 | 0.419 | 0.384 | 0.53 | 0.319 | 0.447 | 0.379 | 0.607 | 0.43 | 0.322 | 0.431 | 1.01 | 0.968 | 0.958 | 0.905 | 0.801
NCI-H2405 | 0.54 | 0.577 | 0.555 | 0.415 | 0.43 | 0.459 | 0.484 | 0.366 | 0.853 | 0.884 | 1.01 | 0.723 | 0.98 | 1.14 | 1.13 | 0.269 | 0.234
NCI-H3122 | 0.168 | 0.205 | 0.192 | 0.177 | 0.36 | 0.391 | 0.387 | 0.333 | 0.0688 | 0.0544 | 0.0785 | 0.0818 | 1.01 | 1.06 | 0.981 | 0.969 | 0.934
PC-3 [JPC-3] | 0.548 | 0.54 | 0.535 | 0.553 | 0.494 | 0.481 | 0.478 | 0.471 | 0.68 | 0.677 | 0.73 | 0.735 | 0.457 | 0.501 | 0.503 | 0.406 | 0.418
PC-14 | 0.564 | 0.522 | 0.601 | 0.339 | 0.357 | 0.633 | 0.488 | 0.4 | – | 0.106 | 0.196 | 0.196 | 0.302 | 0.442 | 0.382 | 0.3 | 0.294
RERF-LC-KJ | 1.08 | 1.06 | 1.09 | 1.07 | 0.376 | 0.443 | 0.537 | 0.477 | 1.22 | 1.4 | 1.18 | 1.07 | 0.682 | 0.876 | 1.01 | 0.761 | 0.794
SK-LU-1 | 0.336 | 0.268 | 0.423 | 0.422 | 0.444 | 0.649 | 0.628 | 0.662 | 0.193 | 0.204 | 0.227 | 0.225 | 0.875 | 0.93 | 1.09 | 0.491 | 0.303
SK-MES-1 | 0.332 | 0.303 | 0.329 | 0.352 | 0.657 | 0.695 | 0.738 | 0.545 | 0.796 | 0.839 | 0.874 | 0.819 | 0.416 | 0.477 | 0.5 | 0.449 | 0.295
SW 1573 | 0.387 | 0.398 | 0.348 | 0.307 | 0.352 | 0.383 | 0.232 | 0.18 | 0.207 | 0.737 | 0.207 | 0.296 | 1.13 | 1.22 | 1.14 | 1.27 | 0.825
UMC-11 | 0.385 | 0.338 | 0.342 | 0.395 | 0.266 | 0.348 | 0.353 | 0.367 | 1.09 | 1.04 | 1.26 | 1.16 | 0.952 | 1.08 | 1.06 | 0.241 | 0.378
